Legend:
[1] = test system: NCI-H1975 lung carcinoma cells; experiment: Cell viability by MTT assay; type: cell-based; conditions: NCI-H1975, 100 μM, 24 h
[2] = molecular target: purified human αIIbβ3 integrin receptor (Homo sapiens, UniProt P05106+P08514); type: binding
[3] = test system: HFL-1 lung fibroblasts; conditions: HFL-1, 100 μM, 24 h incubation
[4] = test system: AsPC-1 pancreatic carcinoma; experiment: Cell viability by MTT assay; type: cell-based; conditions: AsPC-1, 100 μM, 24 h
[5] = molecular target: αvβ3 integrin receptor (Homo sapiens, UniProt P05106+P06756); type: binding
[6] = molecular target: αIIbβ3 integrin (Homo sapiens, UniProt P05106+P08514); experiment: Hyperpolarized 129Xe NMR binding assay
[7] = physchem; type: physicochemical
[8] = 50 μM with 16 μM αIIbβ3 integrin, Tris buffer, 30% glycerol, 0.1% Triton X-100

| Structure (SMILES) | maximum toxicity [1] [%] | weaker binding compared to c[RGDyK] peptide [2] | maximum toxicity [3] [%] | maximum toxicity [4] [%] | lower affinity compared to c[RGDyK] peptide alone [5] | 129Xe NMR chemical shift of "bound" biosensor [6, 8] [ppm] | 129Xe NMR chemical shift of "free" biosensor [6, 8] [ppm] | 129Xe NMR chemical shift of biosensor alone ([6]; 100 μM, Tris buffer (1 mM, pH 7.2)) [ppm] | solubility [7] [µM] |
| --- | --- | --- | --- | --- | --- | --- | --- | --- | --- |
| C#CCOc1cc2c3cc1OCCOc1cc4c(cc1OC)Cc1cc5c(OC)cc1Cc1cc(c(OC)cc1C4)OCCOc1cc(c(cc1OCC#C)Cc1cc(c(OCc4cn(CCCC[C@@H]6NC(=O)[C@@H](Cc7ccc(O)cc7)NC(=O)[C@H](CC(=O)O)NC(=O)CNC(=O)[C@H](CCCNC(=N)N)NC6=O)nn4)cc1C3)OCCO5)C2 [Biosensor 3] | 57 | approximately 10 fold | 40 | 61 | approximately 4 fold |  |  |  |  |
| COc1cc2c3cc1OCCOc1cc4c(cc1OCc1cn(CCCC[C@@H]5NC(=O)[C@@H](Cc6ccc(O)cc6)NC(=O)[C@H](CC(=O)O)NC(=O)CNC(=O)[C@H](CCCNC(=N)N)NC5=O)nn1)Cc1cc5c(OCc6cn(CCC(=O)O)nn6)cc1Cc1cc(c(OCc6cn(CCC(=O)O)nn6)cc1C4)OCCOc1cc(c(cc1OC)Cc1cc(c(OC)cc1C3)OCCO5)C2 [Biosensor 5] |  |  |  |  |  | 71.2 | 67.1 | 65.8 | ≤ 250 |

Source: article PMC4214152 (Chemical science (Royal Society of Chemistry : 2010), 2011)
